Results reported in the supplement of paper PMC10307832.

How the values were obtained:
Assay in all cases: relative viability (nuclei count vs DMSO), 5 days (fraction); higher = more cells survive
[1] = system: NCI-H1944
How it was run: (§1)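 Relative viability divides the nuclei count in treated wells by that in vehicle wells. Lung cancer cell lines were seeded in 1536-well plates, dosed by pin tool the next day, and fixed and stained after 5 days in one step with final 0.05% Triton X-100, 1% formaldehyde and 1 ug/ml Hoechst. Dosing was a single drug or a fixed anchor-drug dose plus five library-drug doses (not always all listed) in √10 steps, and values are medians of duplicate plates imaged at 4×.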

[2] = system: UMC-11
How it was run: as §1

[3] = system: LXF-289
How it was run: as §1

[4] = system: LC-2-ad
How it was run: as §1

[5] = system: COR-L 105
How it was run: as §1

[6] = system: NCI-H2170
How it was run: as §1

[7] = system: HCC-78
How it was run: as §1

[8] = system: A-427
How it was run: as §1

[9] = system: HCC-366
How it was run: as §1

[10] = system: HOP-62
How it was run: as §1

[11] = system: NCI-H2009
How it was run: as §1

[12] = system: LU99A
How it was run: as §1

[13] = system: NCI-H1915
How it was run: as §1

[14] = system: EPLC-272H
How it was run: as §1

[15] = system: NCI-H1666
How it was run: as §1

[16] = system: NCI-H2085
How it was run: as §1

[17] = system: NCI-H358
How it was run: as §1

[18] = system: NCI-H460
How it was run: as §1

[19] = system: SK-LU-1
How it was run: as §1

[20] = system: NCI-H1792
How it was run: as §1

Structure (SMILES): CC(=O)O[C@@]12CO[C@@H]1C[C@H](O)[C@@]1(C)C(=O)[C@H](O)C3=C(C)[C@@H](OC(=O)[C@H](O)[C@@H](NC(=O)OC(C)(C)C)c4ccccc4)C[C@@](O)([C@@H](OC(=O)c4ccccc4)[C@H]21)C3(C)C [Docetaxel] + C[C@@H](Oc1cc(-c2cnn(C3CCNCC3)c2)cnc1N)c1c(Cl)ccc(F)c1Cl [Crizotinib] (partner 1 µM)
- relative viability ([1]; first compound 0.0002 µM): 1.13
- relative viability ([1]; first compound 0.000632 µM): 1.01
- relative viability ([1]; first compound 0.002 µM): 0.956
- relative viability ([1]; first compound 0.006325 µM): 0.192
- relative viability ([1]; first compound 0.02 µM): 0.137
- relative viability ([2]; first compound 0.0002 µM): 0.612
- relative viability ([2]; first compound 0.000632 µM): 0.485
- relative viability ([2]; first compound 0.002 µM): 0.122
- relative viability ([2]; first compound 0.006325 µM): 0.108
- relative viability ([2]; first compound 0.02 µM): 0.084
- relative viability ([3]; first compound 0.0002 µM): 0.819
- relative viability ([3]; first compound 0.000632 µM): 0.483
- relative viability ([3]; first compound 0.002 µM): 0.452
- relative viability ([3]; first compound 0.006325 µM): 0.119
- relative viability ([3]; first compound 0.02 µM): 0.139
- relative viability ([4]; first compound 0.0002 µM): 0.388
- relative viability ([4]; first compound 0.000632 µM): 0.342
- relative viability ([4]; first compound 0.002 µM): 0.318
- relative viability ([4]; first compound 0.006325 µM): 0.389
- relative viability ([4]; first compound 0.02 µM): 0.222
- relative viability ([5]; first compound 0.0002 µM): 0.768
- relative viability ([5]; first compound 0.000632 µM): 0.588
- relative viability ([5]; first compound 0.002 µM): 0.361
- relative viability ([5]; first compound 0.006325 µM): 0.285
- relative viability ([5]; first compound 0.02 µM): 0.248
- relative viability ([6]; first compound 0.0002 µM): 1.04
- relative viability ([6]; first compound 0.000632 µM): 0.999
- relative viability ([6]; first compound 0.002 µM): 0.671
- relative viability ([6]; first compound 0.006325 µM): 0.304
- relative viability ([6]; first compound 0.02 µM): 0.199
- relative viability ([7]; first compound 0.0002 µM): 0.33
- relative viability ([7]; first compound 0.000632 µM): 0.32
- relative viability ([7]; first compound 0.002 µM): 0.245
- relative viability ([7]; first compound 0.006325 µM): 0.308
- relative viability ([7]; first compound 0.02 µM): 0.223
- relative viability ([8]; first compound 0.0002 µM): 0.998
- relative viability ([8]; first compound 0.000632 µM): 0.859
- relative viability ([8]; first compound 0.002 µM): 0.506
- relative viability ([8]; first compound 0.006325 µM): 0.221
- relative viability ([8]; first compound 0.02 µM): 0.167
- relative viability ([9]; first compound 0.0002 µM): 0.426
- relative viability ([9]; first compound 0.000632 µM): 0.0953
- relative viability ([9]; first compound 0.002 µM): 0.0204
- relative viability ([9]; first compound 0.006325 µM): 0.0165
- relative viability ([9]; first compound 0.02 µM): 0.0108
- relative viability ([10]; first compound 0.0002 µM): 0.903
- relative viability ([10]; first compound 0.000632 µM): 0.386
- relative viability ([10]; first compound 0.02 µM): 0.129
- relative viability ([11]; first compound 0.0002 µM): 0.95
- relative viability ([11]; first compound 0.000632 µM): 1.03
- relative viability ([11]; first compound 0.002 µM): 0.426
- relative viability ([11]; first compound 0.006325 µM): 0.252
- relative viability ([11]; first compound 0.02 µM): 0.174
- relative viability ([12]; first compound 0.0002 µM): 0.522
- relative viability ([12]; first compound 0.000632 µM): 0.401
- relative viability ([12]; first compound 0.002 µM): 0.367
- relative viability ([12]; first compound 0.006325 µM): 0.278
- relative viability ([12]; first compound 0.02 µM): 0.196
- relative viability ([13]; first compound 0.0002 µM): 0.892
- relative viability ([13]; first compound 0.000632 µM): 0.803
- relative viability ([13]; first compound 0.002 µM): 0.325
- relative viability ([13]; first compound 0.006325 µM): 0.181
- relative viability ([13]; first compound 0.02 µM): 0.141
- relative viability ([14]; first compound 0.0002 µM): 0.832
- relative viability ([14]; first compound 0.000632 µM): 0.547
- relative viability ([14]; first compound 0.002 µM): 0.321
- relative viability ([14]; first compound 0.006325 µM): 0.0867
- relative viability ([14]; first compound 0.02 µM): 0.1
- relative viability ([15]; first compound 0.0002 µM): 0.67
- relative viability ([15]; first compound 0.000632 µM): 0.508
- relative viability ([15]; first compound 0.002 µM): 0.337
- relative viability ([15]; first compound 0.006325 µM): 0.259
- relative viability ([15]; first compound 0.02 µM): 0.24
- relative viability ([16]; first compound 0.0002 µM): 0.63
- relative viability ([16]; first compound 0.000632 µM): 0.706
- relative viability ([16]; first compound 0.002 µM): 0.737
- relative viability ([16]; first compound 0.006325 µM): 0.415
- relative viability ([16]; first compound 0.02 µM): 0.317
- relative viability ([17]; first compound 0.0002 µM): 0.383
- relative viability ([17]; first compound 0.000632 µM): 0.342
- relative viability ([17]; first compound 0.002 µM): 0.16
- relative viability ([17]; first compound 0.02 µM): 0.116
- relative viability ([18]; first compound 0.0002 µM): 0.73
- relative viability ([18]; first compound 0.000632 µM): 0.673
- relative viability ([18]; first compound 0.002 µM): 0.0086
- relative viability ([18]; first compound 0.006325 µM): 0.0137
- relative viability ([18]; first compound 0.02 µM): 0.0093
- relative viability ([19]; first compound 0.0002 µM): 0.692
- relative viability ([19]; first compound 0.000632 µM): 0.567
- relative viability ([19]; first compound 0.002 µM): 0.379
- relative viability ([19]; first compound 0.006325 µM): 0.249
- relative viability ([19]; first compound 0.02 µM): 0.272
- relative viability ([20]; first compound 0.0002 µM): 0.929
- relative viability ([20]; first compound 0.000632 µM): 0.905
- relative viability ([20]; first compound 0.002 µM): 0.646
- relative viability ([20]; first compound 0.02 µM): 0.115
